# According to patent US11186577B2, “Vasopressin receptor antagonists and products and methods related thereto” (BlackThorn Therapeutics, Inc., priority 2017, dated 2021):
# pIC50: −log10 of the molar value. Read-outs that look alike come from different tables or passages of the source.
# Legend:
# MDR1-MDCK cells = assay: MDR1-MDCK effective efflux assay (Transwell, 10 μM, 1 hour), MDR1-MDCK cells; type: in vitro ADME; conditions: for MDR1 EER / MDR1 ER: MDCK-MDR1
# Method in brief: (§1)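 Wild-type and MDR1-MDCK monolayers cultured 3 days were dosed with compound at 10 μM (0.1% DMSO) in HBSS/25 mM HEPES pH 7.4, in both A>B and B>A directions, for 1 h at 37 °C. Samples were quantified by LC-MS/MS to give Papp and efflux ratio. Effective efflux ratio = ER(MDR1-MDCK)/ER(wild-type); Lucifer Yellow checked monolayer integrity.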
# MDR1 (P-glycoprotein) = assay: as above; type: in vitro ADME; conditions: dog, MDCK-MDR1, pH 7.4, Papp AB MDR1
# Method in brief: as §1
# [1] = system: wild-type (WT) MDCK cells; assay: MDR1-MDCK effective efflux assay (Transwell, 10 μM, 1 hour), wild-type MDCK cells; type: in vitro ADME; conditions: for WT ER: MDCK
# Method in brief: as §1
# [2] = as above; type: in vitro ADME; conditions: dog, MDCK, pH 7.4, Papp AB WT
# Method in brief: as §1
# V1a receptors = V1a receptors (Rattus norvegicus (Rat), UniProt P30560); assay: Arginine-Vasopressin (AVP) induced phospho-Erk measurement in rat choroid plexus (RCP) cells; type: cell-based
# Text: When V1a receptors are coupled to phospholipase C (PLC), they increase intracellular Ca2+ concentrations and protein kinase C (PKC) activity, and transactivate the mitogen-activated protein kinases/extracellular signal-regulated kinase (MAPK/Erk) and PI3 kinase/Akt pathways upon activation (Chen et al., J Neuroendocrinol. 2010). Rat choroid plexus (RCP) cell lines express functional V1a receptors measured by increased calcium concentrations in response to V1a receptor agonists (Battle et al., Biochem Biophys Res Comm 2000).
# RCP P9(18) cells were seeded 30K/well, in 100 μl growth medium containing 10% FBS in polystyrene 96-well plates and incubated at 37° C., 5% CO2 and incubated overnight. The following day, the growth medium was replaced with 50 μl pre-warmed HBSS containing 20 mM HEPES and the cells were incubated at 37° C., 5% CO2 for 1.5 hrs. 1 mM AVP (Sigma V9879) was freshly prepared in distilled water in a glass vial, and diluted to 3× concentrations in HBSS containing 20 mM HEPES and 0.1% BSA in glass vials and kept on ice. Cells were treated with 25 μl 3× vehicle, 3× eBioscience Cell Stimulation Cocktail (Thermo Fisher Scientific 00-4970-93) or 3×AVP and incubated at 37° C., 5% CO2 for 5, 10 or 20 min. Final concentrations of AVP: 10, 100 or 1000 nM. Final concentrations of components in Cell Stimulation Cocktail: 81 nM PMA, 1.34 μM ionomycin, 0.2% ethanol. Cells were lysed with 25 μl 4×CST lysis buffer containing protease and phosphatase inhibitors, PMSF and SDS and then stored at −80° C., for 48 h. The lysates were thawed, centrifuged at 2000 g for 30 min at 4° C. and 40 μl supernatants assayed for pERK1/2 (Thr202/Tyr204; Thr185/Tyr187) and total ERK1/2 using MSD kit K15107D. The MSD ECL data for the lysates were corrected for no cell blanks, then phospho-protein levels expressed as a ratio to the total ERK1/2 level. The ratios were expressed as fold-change from the vehicle-treated control at each timepoint.
# MDR1 (P-gp) = assay: in vitro; conditions: dog, MDCK-MDR1
# CD-1 mice = assay: Arginine-Vasopressin (AVP) induced behavior in mouse (i.c.v. AVP, scratching, digging, grooming); type: in vivo; conditions: 100 mg/kg, po
# Description: Administration of Arginine-Vasopressin (AVP) intracerebroventricularly (i.c.v.) elicits characteristic scratching, digging and grooming behavior in mice that can be measured readily and is sensitive to blockade with vasopressin antagonists (Meisenberg, 1988; Bleickart et al., 2009).
# Male CD-1 mice (Charles River Germany) weighing 22-25 g upon the study in-life are used for this study. Animals are housed in groups of 4-5 per cage in standard temperature (22±1° C.) and light-controlled environment (lights on from 7 am to […]), with ad libitum access to food and water. Prior to commencing any procedures to the mice, they are allowed to habituate in the vivarium for a minimum of 7 days.
# Anesthesia is induced in a plexiglass chamber for 2-3 min with 5% isoflurane, and maintained through a snout mask with 1-2% isoflurane thereafter. A homeothermic blanket system with a rectal probe is used to monitor and maintain the animal's body temperature at 37.0° C.±1.5° C. during the operation. […] The actual coordinates are calculated by the distance from the point in midline between the eyes and no skin incision is made. […]
# Mice are observed and video-recorded for 15 minutes following AVP/saline administration and behaviors are measured (in seconds) and a cumulative time is calculated. […]
# in vitro = conditions: dog, MDCK
# [3] = second study, read-out: IC50, AVP induced pERK1/2 to total ERK1/2
# [4] = study 1, read-out: IC50, AVP induced pERK1/2 to total ERK1/2
# V1a receptors, sequence (P30560 whole entry): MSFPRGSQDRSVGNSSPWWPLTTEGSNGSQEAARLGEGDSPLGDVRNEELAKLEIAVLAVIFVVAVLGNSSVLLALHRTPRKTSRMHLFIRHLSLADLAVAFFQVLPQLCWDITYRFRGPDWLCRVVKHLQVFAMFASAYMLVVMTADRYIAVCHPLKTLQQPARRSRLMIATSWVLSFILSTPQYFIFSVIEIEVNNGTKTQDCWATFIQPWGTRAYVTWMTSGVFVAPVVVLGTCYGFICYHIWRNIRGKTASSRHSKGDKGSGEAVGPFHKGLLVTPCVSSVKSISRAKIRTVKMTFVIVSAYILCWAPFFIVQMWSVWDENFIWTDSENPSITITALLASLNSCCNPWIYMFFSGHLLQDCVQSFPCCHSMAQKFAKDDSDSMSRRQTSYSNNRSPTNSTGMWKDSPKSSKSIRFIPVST
Papp A→B at 2 h (MDR1 (P-gp)) [×10⁻⁶ cm/s],Papp A→B at 2 h (in vitro) [×10⁻⁶ cm/s],Structure (SMILES),MDR1 EER (MDR1-MDCK cells),MDR1 ER (MDR1-MDCK cells),"Papp A→B at 1 h, 10 μM (MDR1 (P-glycoprotein)) [×10⁻⁶ cm/s]",WT ER [1],"Papp A→B at 1 h, 10 μM [2] [×10⁻⁶ cm/s]","Papp AB MDR1 (MDR1-MDCK cells; MDR1-MDCK cells, apical to basolateral (A>B), 10 μM, 1 hour)",pIC50 (V1a receptors; [3]),pIC50 (V1a receptors; [4]),"Papp AB WT ([1]; wild-type MDCK cells, apical to basolateral (A>B), 10 μM, 1 hour)",antagonist activity to AVP-induced scratching behaviors (CD-1 mice)
–,–,"COC(=O)N1Cc2cc(Cl)ccc2-n2c(C3CC4(C3)CN(c3ccc(F)cn3)C4)nnc2C1C (stereo not drawn) [compound 142, methyl 8-chloro-1-(2-(5-fluoropyridin-2-yl)-2-azaspiro[3.3]heptan-6-yl)-4-methyl-4H-benzo[f][1,2,4]triazolo[4,3-a][1,4]diazepine-5(6H)-carboxylate]",+,++,> 20,++++,> 20,–,–,–,–,–
–,–,CC1c2nnc(C3CC4(C3)CN(c3ncc(F)cn3)C4)n2-c2ccc(Cl)cc2CN1C(=O)OC(CF)CF (stereo not drawn) [compound 194],+,+,10 to 20,++++,10 to 20,–,–,–,–,–
–,–,CCOC(=O)N1Cc2cc(Cl)ccc2-n2c(C3CC4(C3)CN(c3ncc(F)cn3)C4)nnc2C1C (stereo not drawn) [compound 172],++,++,> 20,++++,> 20,–,–,–,–,–
–,–,CC(C)OC(=O)N1Cc2cc(Cl)ccc2-n2c(nnc2C2CC3(C2)CN(C(=O)C2CC2)C3)C1 [compound 153],+,+,< 7,++,> 20,–,–,–,–,–
–,–,CCOC(=O)N1Cc2cc(Cl)ccc2-n2c(C3CC4(C3)CN(c3ncccn3)C4)nnc2C1C (stereo not drawn) [compound 168],+,+,7 to 10,+++,> 20,–,–,–,–,–
–,–,COC(=O)N1Cc2cc(Cl)ccc2-n2c(C3CC4(C3)CN(c3ncc(F)cn3)C4)nnc2C1C (stereo not drawn) [compound 170],+,+,10 to 20,++++,> 20,–,–,–,–,–
–,–,CC(C)OC(=O)N1Cc2cc(Cl)ccc2-n2c(C3CC4(C3)CN(c3ncccn3)C4)nnc2C1C (stereo not drawn) [compound 167],+++,+++,> 20,+++,> 20,–,–,–,–,–
–,–,O=C(N1Cc2cc(Cl)ccc2-n2c(nnc2C2CC3(C2)CN(c2cnccn2)C3)C1)C1(F)CC1 [compound 81],+,+,7 to 10,+++,> 20,–,–,–,–,–
–,–,CC1c2nnc(C3CC4(C3)CN(c3cnccn3)C4)n2-c2ccc(Cl)cc2CN1C(=O)C1(F)CC1 (stereo not drawn) [compound 177],+,+,< 7,+++,> 20,–,–,–,–,–
–,–,"CN1Cc2cc(Cl)ccc2-n2c(nnc2C2CC3(C2)CN(c2ccc(F)cn2)C3)C1 [compound 1, 8-chloro-1-(2-(5-fluoropyridin-2-yl)-2-azaspiro[3.3]heptan-6-yl)-5-methyl-5,6-dihydro-4H-benzo[f][1,2,4]triazolo[4,3-a][1,4]diazepine]",+,+,7 to 10,++,> 20,–,–,–,–,–
–,–,CN1Cc2cc(Cl)ccc2-n2c(nnc2C2CC3(C2)CN(c2cccc(F)n2)C3)C1 [compound 8],+++,+++,> 20,++++,> 20,–,–,–,–,–
–,–,"COC(=O)N1Cc2cc(Cl)ccc2-n2c(C3CC4(C3)CN(c3ccc(F)cn3)C4)nnc2C1C (single isomer, unassigned) [142A]",–,–,–,–,–,++++ ((++++) denotes >20 (10^-6 cm/sec)),7.70,7.80,++++ ((++++) denotes >20 (10^-6 cm/sec)),–
–,–,"Clc1ccc2c(c1)CN(C1COC1)Cc1nnc(C3CC4(C3)CN(c3ccccn3)C4)n1-2 [compound 57, 8-chloro-5-(oxetan-3-yl)-1-(2-(pyridin-2-yl)-2-azaspiro[3.3]heptan-6-yl)-5,6-dihydro-4H-benzo[f][1,2,4]triazolo[4,3-a][1,4]diazepine]",+,+,< 7,+++,> 20,–,–,–,–,–
> 20,10 to 20,"CN1Cc2cc(Cl)ccc2-n2c(nnc2[C@H]2CC[C@H](Oc3ccccn3)CC2)C1 [balovaptan, reference compound]",–,–,–,–,–,–,7.25,7.07,–,effective
–,–,CC1c2nnc(C3CC4(C3)CN(c3ncccn3)C4)n2-c2ccc(Cl)cc2CN1C(=O)OC1CC1 (stereo not drawn) [compound 171],+,+,10 to 20,++++,> 20,–,–,–,–,–
–,–,CC(C)C(=O)N1Cc2cc(Cl)ccc2-n2c(nnc2C2CC3(C2)CN(c2ccccn2)C3)C1 [compound 71],+,+,< 7,++++,> 20,–,–,–,–,–
–,–,CCC(=O)N1Cc2cc(Cl)ccc2-n2c(nnc2C2CC3(C2)CN(c2ccccn2)C3)C1 [compound 67],+,+,< 7,+++,> 20,–,–,–,–,–
